Test results: PMC2647841, “Sulfatide Recognition by Colonization Factor Antigen CS6 from Enterotoxigenic Escherichia coli” (PLoS ONE, 2009)

Target: T1, CS6 protein (coli surface antigen 6; CS6 adhesin) (Escherichia coli, UniProt P53510)
T1 construct: gene cssB; CS6 complex (CssA and CssB structural subunits; operon cssA-cssD, recombinant plasmid pJT-CS6), no tag stated; secreted by E. coli TOP10-CS6, ammonium sulfate precipitate of culture supernatant; 125I-labelled; with CS6 fimbrial subunit A
Assay: microtiter well binding of […]-labelled CS6 to coated glycosphingolipid
Settings: amount of glycosphingolipid coated per well, not a concentration; room temperature, 4 h

T1 sequence (P53508 19-154): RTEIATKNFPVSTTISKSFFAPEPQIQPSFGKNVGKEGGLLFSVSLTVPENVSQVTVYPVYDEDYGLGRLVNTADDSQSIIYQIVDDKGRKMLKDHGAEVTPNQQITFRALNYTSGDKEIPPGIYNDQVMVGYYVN
T1 sequence (P53510 22-167): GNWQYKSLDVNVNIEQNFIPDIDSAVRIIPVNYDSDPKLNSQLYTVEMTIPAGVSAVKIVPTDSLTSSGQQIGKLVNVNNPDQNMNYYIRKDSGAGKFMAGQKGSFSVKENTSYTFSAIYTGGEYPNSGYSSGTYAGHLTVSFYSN

## Sulfatide [compound 3]
  half-maximal binding: ~ 100 ng
